Measurements taken from patent US20210001143A1, “FOCAL PHOTODYNAMIC THERAPY METHODS” (STEBA MAOR SA, priority 2011, published 2021).

Experiments:
[1] = test system: low risk organ-confined prostate cancer; assay: Vascular-targeted photodynamic therapy (VTP), 6 month TRUS-guided biopsy; type: in vivo, human; conditions: study PCM201, 4 mg/kg intravenously, light 200 J/cm, men
Procedure: (§1) Men with low risk organ-confined prostate cancer (Gleason 3+3 on minimum 10 core TRUS biopsy) were recruited into two consecutive studies: PCM201 (a dose escalation study) or PCM203 (a confirmatory study). The vascular-targeted photodynamic therapy (“VTP”) procedure, carried out under general anesthesia, involved administration of TOOKAD® Soluble intravenously at 4 mg/kg, which was then activated by low power laser light delivered locally to the prostate via a brachytherapy-style transperineal template with a light density of 200 J/cm. Planned treatment volume (“PTV”, in mls) was determined by the location of tumor on biopsy and by MRI, and varied in volume from less than one lobe, to the whole prostate.
(§2) The Light Density Index (“LDI”) was calculated as LDI=Σ(n)L/PTV, where Σ(n)L is the total length of all illuminating fibers (in cm), and PTV is the planned treatment volume, in mls.
(§3) This was also correlated with the result of 6 month transrectal ultrasound (TRUS)-guided biopsy (positive or negative for any cancer).
(§4) The correlation between LDI and the volume of tissue necrosis at day 7 and with the rate of negative biopsies at Month 6 was assessed in search of a threshold.
(§5) 90 men were treated with a TOOKAD® Soluble dose of 4 mg/kg and a light dose of 200 J/cm in the two studies. Of these 89 were analyzable for LDI.

[2] = test system: low risk organ-confined prostate cancer; assay: Vascular-targeted photodynamic therapy (VTP), early treatment effect on 1 week MRI (lack of gadolinium uptake); type: in vivo, human; conditions: 4 mg/kg intravenously, light 200 J/cm, men
Procedure: as §1, §2, §3, §4, §5

## Palladium 3^1-oxo-15-methoxycarbonylmethyl-rhodobacteriochlorin 13^1-(2-sulfoethyl) amide dipotassium salt [TOOKAD® Soluble]
[1]; LDI < 1
  % of negative biopsies (6 months): 31 (4/17) %
[1]; LDI ≥ 1
  % of negative biopsies (6 months): 83 (10/12) %
[2]; study PCM201, LDI < 1
  Treatment effect on 1 week MRI as % of PTV: 59 (17) % of PTV
[2]; study PCM201, LDI ≥ 1
  Treatment effect on 1 week MRI as % of PTV: 95 (12) % of PTV
[2]; study PCM203, LDI < 1
  Treatment effect on 1 week MRI as % of PTV: 60 (22) % of PTV
[2]; study PCM203, LDI ≥ 1
  Treatment effect on 1 week MRI as % of PTV: 94 (28) % of PTV
